Reference: PMC6225228, “Design, Synthesis and Evaluation of N-pyrazinylbenzamides as Potential Antimycobacterial Agents” (Molecules : A Journal of Synthetic Chemistry and Natural …, 2018)
Values after ≈ are worked out from the molar mass of the structure shown. Where two headings read alike, the source gives them in different places. Marks after values point to notes of the source that are not given here.

Tests used:
[1] = system: Mycobacterium tuberculosis H37Rv (Mtb); conditions: cited from earlier work
[2] = system: Mycobacterium tuberculosis H37Rv (Mtb); conditions: cited from earlier work; remark: listed apart in the source
[3] = system: Mycobacterium tuberculosis H37Rv CNCTC My 331/88 (ATCC 27294); experiment: Antimycobacterial microdilution MABA, M. tuberculosis; format: cell-based; conditions: for MIC: Mycobacterium tuberculosis
[4] = system: M. kansasii CNCTC My 235/80 (ATCC 12478); experiment: Antimycobacterial microdilution MABA, M. kansasii; format: cell-based, Mycobacterium kansasii; conditions: for MIC: Mycobacterium kansasii
[5] = system: M. avium ssp. avium CNCTC My 80/72 (ATCC 15769); experiment: Antimycobacterial microdilution MABA, M. avium; format: cell-based, Mycobacterium avium; conditions: for MIC: Mycobacterium avium
[6] = system: Mycobacterium smegmatis CCM 4622 (ATCC 607); experiment: Antimycobacterial microdilution, M. smegmatis; format: cell-based; conditions: Mycolicibacterium smegmatis, read-out: M. smeg. ATCC 607 MIC
[7] = system: Staphylococcus aureus CCM 4516/08; experiment: Antibacterial microdilution broth, SA; format: cell-based; conditions: Staphylococcus aureus
[8] = system: Staphylococcus aureus H 5996/08 methicillin resistant; experiment: microbe, parasite or virus in culture; format: cell-based; conditions: for MIC: Staphylococcus aureus, MRSA, read-out: MIC MRSA
[9] = system: Staphylococcus epidermidis H 6966/08; experiment: Antibacterial microdilution broth, SE; format: cell-based; conditions: read-out: MIC SE
[10] = system: Enterococcus sp. J 14365/08; experiment: Antibacterial microdilution broth, EF; format: cell-based; conditions: Enterococcus, read-out: MIC EF
[11] = system: Escherichia coli CCM 4517; experiment: Antibacterial microdilution broth, EC; format: cell-based; conditions: Escherichia coli, read-out: MIC EC
[12] = system: Pseudomonas aeruginosa CCM 1961; experiment: Antibacterial microdilution broth, PA; format: cell-based; conditions: Pseudomonas aeruginosa, read-out: MIC PA
[13] = system: Candida albicans ATCC 44859; experiment: Antifungal microdilution broth, CA; format: cell-based; conditions: Candida albicans, read-out: MIC CA
Candida tropicalis 156 = experiment: Antifungal microdilution broth, CT; format: cell-based; conditions: read-out: MIC CT
Candida krusei E28 = experiment: Antifungal microdilution broth, CK; format: cell-based; conditions: Pichia kudriavzevii, read-out: MIC CK
Candida glabrata 20/I = experiment: Antifungal microdilution broth, CG; format: cell-based; conditions: Nakaseomyces glabratus, 20/I, read-out: MIC CG
Trichosporon asahii 1188 = experiment: Antifungal microdilution broth, TA; format: cell-based; conditions: read-out: MIC TA
[14] = system: Aspergillus fumigatus 231; experiment: Antifungal microdilution broth, AF; format: cell-based; conditions: read-out: MIC AF
[15] = system: Lichtheimia corymbifera 272; experiment: Antifungal microdilution broth, LC; format: cell-based; conditions: read-out: MIC LC
[16] = system: Trichophyton interdigitale 445; experiment: Antifungal microdilution broth, TI; format: cell-based; conditions: read-out: MIC TI
[17] = human, HepG2 cells
[18] = Middlebrook 7H9, pH = 6.6, MABA
[19] = Middlebrook 7H9 with OADC growth supplement, pH = 6.6, MABA
[20] = read-out: Mtb H37Rv ATCC 27294 MIC, Middlebrook 7H9 with OADC growth supplement, pH = 6.6, MABA
[21] = Middlebrook 7H9 with OADC, pH 6.6, MABA
[22] = ATCC12478, pH 6.6, read-out: M. kans. ATCC 12478 MIC, Middlebrook 7H9 with OADC, pH 6.6, MABA
[23] = ATCC15769, pH 6.6, read-out: M. avium ATCC 15769 MIC
[24] = CCM4516, 24 h, read-out: MIC SA, 24 h
[25] = CCM4516, 48 h, read-out: MIC SA, 48 h
[26] = Staphylococcus epidermidis, H6966/08, 24 h
[27] = Staphylococcus epidermidis, H6966/08, 48 h
[28] = Trichosporon asahii, 1188, 24 h
[29] = Trichosporon asahii, 1188, 48 h
[30] = Aspergillus fumigatus, 231, 24 h
[31] = Aspergillus fumigatus, 231, 48 h
[32] = Lichtheimia corymbifera, 272, 24 h
[33] = Lichtheimia corymbifera, 272, 48 h
[34] = Trichophyton interdigitale, 445, 72 h
[35] = Trichophyton interdigitale, 445, 120 h

Structure (SMILES): O=C(Nc1ccccc1)c1cncc(Cl)n1 [Amide R1=6-Cl R2=H]
- Amides MIC ([1]; Šula's semisynthetic medium, pH = 5.6, MABA): 25 ^d [34] μg/mL
- Amides Inhibition (%) at 6.25 μg/mL (TAACF) [2]: 32 [31] %

Structure (SMILES): O=C(Nc1ccccc1Cl)c1cnccn1 [Amide R1=H R2=2-Cl]
- Amides MIC ([1]; Šula's semisynthetic medium, pH = 5.6, growth indicated by turbidity): 50 ^c [19] μg/mL

Structure (SMILES): COc1ccccc1NC(=O)c1cnccn1 [Amide R1=H R2=2-OCH3]
- Amides MIC [1, 18]: >100 ^b [27] μg/mL

Structure (SMILES): O=C(Nc1cccc(C(F)(F)F)c1)c1cnccn1 [Amide R1=H R2=3-CF3]
- Amides MIC [1, 18]: 50 µg/mL
- Amides MIC ([1]; conditions not footnoted): 6.25 µg/mL
- Amides Inhibition (%) at 6.25 μg/mL (TAACF) [2]: 99 [32] %

Structure (SMILES): O=C(Nc1cccc(Cl)c1)c1cnccn1 [Amide R1=H R2=3-Cl]
- Amides MIC [1, 18]: >100 ^b [27] μg/mL
- Amides Inhibition (%) at 6.25 μg/mL (TAACF) [2]: 14 [33] %

Structure (SMILES): COc1cccc(NC(=O)c2cnccn2)c1 [Amide R1=H R2=3-OCH3]
- Amides MIC [1, 18]: >100 ^b [27] μg/mL

Structure (SMILES): Cc1ccc(NC(=O)c2cnccn2)cc1 [Amide R1=H R2=4-CH3]
- Amides MIC [1, 18]: 100 ^b [27] μg/mL
- Amides Inhibition (%) at 6.25 μg/mL (TAACF) [2]: 86 [32] %

Structure (SMILES): O=C(Nc1ccc(Cl)cc1)c1cnccn1 [Amide R1=H R2=4-Cl]
- Amides MIC [1, 18]: 50 ^b [27] μg/mL
- Amides Inhibition (%) at 6.25 μg/mL (TAACF) [2]: 4 [33] %

Structure (SMILES): COc1ccc(NC(=O)c2cnccn2)cc1 [Amide R1=H R2=4-OCH3]
- Amides MIC [1, 18]: >100 ^b [27] μg/mL

Structure (SMILES): O=C(Nc1ccccc1)c1cnccn1 [Amide R1=H R2=H]
- Amides MIC [1, 18]: >100 ^b [27] μg/mL
- Amides Inhibition (%) at 6.25 μg/mL (TAACF) [2]: 0 [31] %

Structure (SMILES): CC(=O)Oc1ccc(C(=O)Nc2cnc(Cl)cn2)cc1 [Compound 2d-Ac]
- Mtb H37Rv ATCC 27294 MIC [3, 19]: >100 µg/mL
- MIC [3, 20]: > 100 µg/mL
- Mtb MIC ([3]; molar concentration): inactive
- M. kans. ATCC 12478 MIC [4, 21]: >100 µg/mL
- MIC [4, 22]: > 100 µg/mL
- M. avium ATCC 15769 MIC [5, 21]: >100 µg/mL
- MIC [5, 23]: > 100 µg/mL
- MIC [6]: 250 µg/mL (≈ 857 µM)
- MIC [7, 24]: 0.98 µM (≈ 0.286 µg/mL)
- MIC [7, 25]: 0.98 µM (≈ 0.286 µg/mL)
- MIC MRSA ([8]; 24 h): >125 µM
- MIC MRSA ([8]; 48 h): >125 µM
- MIC ([8]; 24 h): > 125 µM
- MIC ([8]; 48 h): > 125 µM
- MIC ([9]; 24 h): >125 µM
- MIC ([9]; 48 h): >125 µM
- MIC [9, 26]: > 125 µM
- MIC [9, 27]: > 125 µM
- MIC ([10]; SP.J14365/08, 24 h): > 125 µM
- MIC ([10]; SP.J14365/08, 48 h): > 125 µM
- MIC ([11]; CCM4517, 24 h): > 125 µM
- MIC ([11]; CCM4517, 48 h): > 125 µM
- MIC ([12]; CCM1961, 72 h): > 125 µM
- MIC ([12]; CCM1961, 120 h): > 125 µM
- MIC ([13]; ATCC44859, 24 h): > 125 µM
- MIC ([13]; ATCC44859, 48 h): > 125 µM
- MIC (Candida tropicalis 156; Candida tropicalis, 156, 24 h): > 125 µM
- MIC (Candida tropicalis 156; Candida tropicalis, 156, 48 h): > 125 µM
- MIC (Candida krusei E28; E28, 24 h): > 125 µM
- MIC (Candida krusei E28; E28, 48 h): > 125 µM
- MIC (Candida glabrata 20/I; 24 h): > 125 µM
- MIC (Candida glabrata 20/I; 48 h): > 125 µM
- MIC (Trichosporon asahii 1188; [28]): > 125 µM
- MIC (Trichosporon asahii 1188; [29]): > 125 µM
- MIC [14, 30]: > 125 µM
- MIC [14, 31]: > 125 µM
- MIC [15, 32]: > 125 µM
- MIC [15, 33]: > 125 µM
- MIC [16, 34]: > 125 µM
- MIC [16, 35]: > 125 µM
- melting point: 170.9 to 171.8 °C
- IC50 at 24 h [17]: > 500 µM

Structure (SMILES): O=C(Nc1cncc(Cl)n1)c1cccc(Cl)c1 [Compound 3k]
- Mtb H37Rv ATCC 27294 MIC [3, 19]: >100 µg/mL
- MIC [3, 20]: > 100 µg/mL
- MIC [4, 22]: > 100 µg/mL
- MIC [5, 23]: > 100 µg/mL
- MIC [6]: ≥ 500 µg/mL
- MIC [7, 24]: > 125 µM
- MIC [7, 25]: > 125 µM
- MIC ([8]; 24 h): > 125 µM
- MIC ([8]; 48 h): > 125 µM
- MIC [9, 26]: > 125 µM
- MIC [9, 27]: > 125 µM
- MIC ([10]; SP.J14365/08, 24 h): > 125 µM
- MIC ([10]; SP.J14365/08, 48 h): > 125 µM
- MIC ([11]; CCM4517, 24 h): > 125 µM
- MIC ([11]; CCM4517, 48 h): > 125 µM
- MIC ([12]; CCM1961, 72 h): > 125 µM
- MIC ([12]; CCM1961, 120 h): > 125 µM
- MIC ([13]; ATCC44859, 24 h): > 125 µM
- MIC ([13]; ATCC44859, 48 h): > 125 µM
- MIC (Candida tropicalis 156; Candida tropicalis, 156, 24 h): > 125 µM
- MIC (Candida tropicalis 156; Candida tropicalis, 156, 48 h): > 125 µM
- MIC (Candida krusei E28; E28, 24 h): > 125 µM
- MIC (Candida krusei E28; E28, 48 h): > 125 µM
- MIC (Candida glabrata 20/I; 24 h): > 125 µM
- MIC (Candida glabrata 20/I; 48 h): > 125 µM
- MIC (Trichosporon asahii 1188; [28]): > 125 µM
- MIC (Trichosporon asahii 1188; [29]): > 125 µM
- MIC [14, 30]: > 125 µM
- MIC [14, 31]: > 125 µM
- MIC [15, 32]: > 125 µM
- MIC [15, 33]: > 125 µM
- MIC [16, 34]: > 125 µM
- MIC [16, 35]: > 125 µM
- melting point: 166 to 167.1 °C

Structure (SMILES): O=C(Nc1cncc(Cl)n1)c1cccc(C(F)(F)F)c1 [Compound 3n, N-(6-chloropyrazin-2-yl)-3-(trifluoromethyl)benzamide]
- MIC ([3]; Middlebrook 7H9 with OADC growth supplement, pH = 6.6, MABA, read-out: Mtb H37Rv ATCC 27294 MIC): 25 µg/mL
- MIC ([3]; molar concentration, read-out: Mtb MIC): 82.9 µM
- MIC ([4]; ATCC12478, Middlebrook 7H9 with OADC, pH 6.6, MABA, read-out: M. kans. ATCC 12478 MIC): 25 µg/mL (≈ 82.9 µM)
- MIC ([5]; ATCC15769, Middlebrook 7H9 with OADC, pH 6.6, MABA, read-out: M. avium ATCC 15769 MIC): 50 µg/mL (≈ 166 µM)
- MIC ([6]; Middlebrook 7H9 with OADC, resazurin): 125 µg/mL (≈ 414 µM)
- melting point: 124.2 to 125 °C
- IC50 at 24 h [17]: > 250 µM
